In patent US20110200708A1, “A COMPOSITION FOR ACTIVATING AND/OR STABILIZING MICRO-ORGANISMS” (priority 2008, published 2011):
Several values for one entry are separate records, joined by “and”; a condition that tells them apart may be missing. Equal entries are not always repeated. Where two headings read alike, the source gives them in different places.

Legend:
[1] = test system: mesophilic lactic acid bacteria Strain 4; conditions: 31° C.
Procedure: (§1) One litre of 2%-fat UHT milk was added to a previously sterilized 1200 ml fermentor vessel. Suspensions of yeast extract formulated with either iron pyrophosphate or iron sulfate were sterilized separately and added to the vessel to supply the milk with 0.02 wt % yeast extract and iron at a final amount of 2.4, 4.2 or 6 ppm.
(§2) Vessels were heated to 31° C., inoculated with freshly thawed culture concentrates and incubated for 7 hours under pH-control (pH between 5.9 and 6.1). After the incubation, the obtained starter culture was immediately cooled to a temperature below 8° C.
(§3) The obtained starter culture was tested for acidification activity by inoculating cold 2%-fat UHT-pasteurised milk with 3.0% (v/v) of the culture, incubating the inoculated milk for 2.5 hours at 31° C., and then measuring the change in pH of the milk versus non-inoculated milk. The experiment was done for five different mesophilic lactic acid bacteria strains.

[2] = test system: mesophilic lactic acid bacteria Strain 3; conditions: 31° C.
Procedure: as §1, §2, §3

[3] = test system: mesophilic lactic acid bacteria Strain 5; conditions: 31° C.
Procedure: as §1, §2, §3

[4] = test system: mesophilic lactic acid bacteria Strain 1; conditions: 31° C., in the absence of iron 1.18
Procedure: as §1, §2, §3

[5] = test system: mesophilic lactic acid bacteria Strain 2; conditions: 31° C., in the absence of iron 1.44
Procedure: as §1, §2, §3

[6] = test system: strain 6; assay: Acidification activity of strain 6 bulk starter cultures at different iron and manganese concentrations; type: cell-based, mesophilic lactic acid bacteria
Procedure: The strains were fermented in sterilized production medium in a standard fermentation vessel. The fermentation was carried out by maintaining the pH between 6-6.5 with ammonia at a temperature of about 30° C. The culture was harvested after ammonia consumption was stabilized. The culture was cooled to a temperature of below 10° C. and centrifuged. A concentration factor (harvested broth over pellet volume) of 15-20 was obtained. The obtained concentrate was used for further testing, e.g. with the cell concentrates a series of bulk starter culture fermentations was performed. […] The bulk starter culture was prepared by fermenting the milk during 6 hours at 30° C. under pH-stat conditions. Ammonia was used to maintain the pH at 6.0-6.2. Samples (1.5 ml) of the cultures were taken after 5 and 6 hours fermentation. The samples were tested to establish the acidification activity of the culture under standard conditions. […] Several different final iron and manganese concentrations were used in this experiment. The bulk starter culture was prepared as described above with the proviso that the UHT milk was inoculated with 0.6 wt % cell concentrate.

[7] = test system: mesophilic lactic acid bacteria Strain 9; assay: Acidification activity of bulk starter cultures with yeast extract, iron, manganese and/or molybdate, Strain 9; type: cell-based; conditions: YE 0.02 wt %, Fe, Mn, Mo 8 ppm each
Procedure: (§4) The strains were fermented in sterilized production medium in a standard fermentation vessel. The fermentation was carried out by maintaining the pH between 6-6.5 with ammonia at a temperature of about 30° C. The culture was harvested after ammonia consumption was stabilized. The culture was cooled to a temperature of below 10° C. and centrifuged. A concentration factor (harvested broth over pellet volume) of 15-20 was obtained. The obtained concentrate was used for further testing, e.g. with the cell concentrates a series of bulk starter culture fermentations was performed. […] The bulk starter culture was prepared by fermenting the milk during 6 hours at 30° C. under pH-stat conditions. Ammonia was used to maintain the pH at 6.0-6.2. Samples (1.5 ml) of the cultures were taken after 5 and 6 hours fermentation. The samples were tested to establish the acidification activity of the culture under standard conditions. […] The strains were fermented as described in Example 6. The bulk starter cultures were prepared as described in Example 6 with the proviso that the UHT milk was inoculated with 0.6 wt % cell concentrate. Acid production was measured as described in Example 6 with the proviso that 6 gram sample was taken from the cultures after 5 and 6 hours and added to 200 g UHT milk. The experiment was done with two different strains.

[8] = test system: mesophilic lactic acid bacteria Strain 8; assay: Acidification activity of bulk starter cultures with yeast extract, iron, manganese and/or molybdate, Strain 8; type: cell-based; conditions: YE 0.02 wt %, Fe, Mn, Mo 8 ppm each
Procedure: as §4

[9] = Strain 4, 2.4 ppm iron + 0.02 wt % yeast extract
[10] = Strain 4, 4.2 ppm iron + 0.02 wt % yeast extract
[11] = Strain 4, 6.0 ppm iron + 0.02 wt % yeast extract
[12] = Strain 3, 2.4 ppm iron + 0.02 wt % yeast extract
[13] = Strain 3, 4.2 ppm iron + 0.02 wt % yeast extract
[14] = Strain 3, 6.0 ppm iron + 0.02 wt % yeast extract
[15] = Strain 5, 2.4 ppm iron + 0.02 wt % yeast extract
[16] = Strain 5, 4.2 ppm iron + 0.02 wt % yeast extract
[17] = Strain 5, 6.0 ppm iron + 0.02 wt % yeast extract

SMILES | Acidification activity [1, 9] | Acidification activity [1, 10] | Acidification activity [1, 11] | Acidification activity [2, 12] | Acidification activity [2, 13] | Acidification activity [2, 14] | Acidification activity [3, 15] | Acidification activity [3, 16] | Acidification activity [3, 17] | Acidification activity ([4]; Strain 1, 2.4 ppm iron + 0.02 wt % yeast extract) | Acidification activity ([4]; Strain 1, 6.0 ppm iron + 0.02 wt % yeast extract) | Acidification activity ([5]; Strain 2, 2.4 ppm iron + 0.02 wt % yeast extract) | Acidification activity ([5]; Strain 2, 6.0 ppm iron + 0.02 wt % yeast extract) | Acidification activity of bulk starter culture [6] | Acidification activity of bulk starter culture ([6]; strain 6, Fe 0 ppm, Mn 2.4 ppm, 7 hours, 0/0 ppm 1.61) | Acidification activity of bulk starter culture ([7]; Strain 9, 5 hours, no addition 0.33) | Acidification activity of bulk starter culture ([7]; Strain 9, 6 hours, no addition 0.43) | Acidification activity of bulk starter culture ([8]; Strain 8, 5 hours, no addition 0.64) | Acidification activity of bulk starter culture ([8]; Strain 8, 6 hours, no addition 1.08)
O=P([O-])([O-])OP(=O)([O-])[O-].O=P([O-])([O-])OP(=O)([O-])[O-].O=P([O-])([O-])OP(=O)([O-])[O-].[Fe+3].[Fe+3].[Fe+3].[Fe+3] [Iron pyrophosphate, iron pyrophosphate] | 1.48 ΔpH/2.5 h | 1.56 ΔpH/2.5 h | 1.58 ΔpH/2.5 h | 1.45 ΔpH/2.5 h | 1.48 ΔpH/2.5 h | 1.50 ΔpH/2.5 h | 1.25 ΔpH/2.5 h | 1.32 ΔpH/2.5 h | 1.33 ΔpH/2.5 h | – | – | – | – | – | – | – | – | – | –
O=S(=O)([O-])[O-].[Fe+2] [Iron sulphate, iron sulphate] | 1.54 ΔpH/2.5 h | 1.56 ΔpH/2.5 h | 1.57 ΔpH/2.5 h | 1.49 ΔpH/2.5 h | 1.49 ΔpH/2.5 h | 1.51 ΔpH/2.5 h | 1.29 ΔpH/2.5 h | 1.33 ΔpH/2.5 h | 1.35 ΔpH/2.5 h | 1.47 ΔpH/2.5 h | 1.53 ΔpH/2.5 h | 1.77 ΔpH/2.5 h | 1.71 ΔpH/2.5 h | 1.67 ΔpH/2.5 h and 1.66 ΔpH/2.5 h | – | – | – | – | –
O=S(=O)([O-])[O-].[Mn+2] [M, manganese sulphate] | – | – | – | – | – | – | – | – | – | – | – | – | – | – | 1.65 ΔpH/2.5 h | – | – | – | –
[Na+].[Na+].[O]=[Mo](=[O])([O-])[O-] [Mo, sodium molybdate] | – | – | – | – | – | – | – | – | – | – | – | – | – | – | – | 0.55 ΔpH/2.5 h | 0.79 ΔpH/2.5 h | 0.73 ΔpH/2.5 h | 1.04 ΔpH/2.5 h
